Experimental findings from patent US20050209295A1, “Methimazole derivatives and tautomeric cyclic thiones to inhibit cell adhesion” (priority 2004, published 2005) are described below.

The inhibition is the relative decrease from the control value, in per cent. Read a high inhibition as a strong effect.

What all share (type): cell-based, human
The subject of assay [1] is VCAM-1. Briefly: TNF-alpha-induced VCAM-1 RNA levels in aortic endothelial cells (Northern blot). The settings on record: for % INHIBITION of TNF-alpha-induced VCAM-1 RNA levels: aortic endothelial cells, mean ± SD. As to the method:
(§1) Cell culture and treatment of HAEC: Human aortic endothelial cells (HAEC; Cambrex Bio Science Walkersville, Inc., Walkersville, Md.) are cultured in M199 supplemented with 8% FBS, 100 μg/ml heparin, 10 ng/ml endothelial growth factor, 100 μg/ml hypothalamus extract, 2 mM L-glutamine, 1% non-essential amino acids, 100 units/ml penicillin and 100 μg/ml streptomycin. HAEC are subcultured on gelatin pre-coated: 96-well tissue culture plates (Corning Incorporated; Corning, N.Y.) for viability assays and ELISA; 100-mm tissue culture dishes (BD Falcon; Franklin Lakes, N.J.) for Northern blot analyses, Western blot analyses and EMSA; 35-mm tissue culture dishes (Corning) for adhesion assays and on 24-well tissue culture plates for luciferase promoter assays (BD Falcon). All experiments are performed with confluent HAEC monolayers. Unless noted otherwise, HAEC are treated with 25 ng/ml TNF-α, in the absence or presence of C-10 or 0.25% DMSO (carrier control for C-10), for 2-24 hrs. The concentration of DMSO is held constant at 0.25% (unless indicated otherwise) for all of the C-10 conditions.
HAEC are washed with PBS and total RNA extracted using a commercial kit (RNeasy Mini Kit; Qiagen Inc.; Valencia, Calif.). 12 μg of total RNA per lane is resolved on 1% denaturing agarose gels containing 0.66M formaldehyde. Gels are capillary blotted on Nytran membranes (Schleicher and Schuell Inc.; Keene, N.H.), UV cross-linked, and used for hybridization. The probe for IRF-1 has been previously described (33). The G3PDH cDNA is from Clontech (Palo Alto, Calif.). […]; cDNAs are labeled with α-^32P-dCTP using the Ladderman Labeling Kit (Takara Biochemical Inc.; Berkeley, Calif.) (33). Northern blots are developed using a BAS 1500 Bioimaging Analyzer (Fuji Photo Film Co., Ltd. Medical Systems USA Inc.; Stanford, Calif.). Each experiment is replicated at least twice.

Assay [2] has as its system U937 cell adhesion to HAEC. The assay can be described thus: Flow adhesion assay: U937 cell adhesion to TNF-α activated HAEC. The settings on record: shear stress 1.8 dynes/cm^2. As to the method:
U937 cells (American Type Culture Collection; Manassas, Va.) are cultured in RPMI supplemented with 8% FBS, 2 mM L-glutamine, 100 units/ml penicillin and 100 μg/ml streptomycin. For the adhesion assays, U937 cells are washed, resuspended to 1×10^8 cells/ml in RPMI and held on ice (<4 hrs.) until the time they are used in the flow adhesion assay.
Flow adhesion assays: A parallel plate flow chamber (Glycotech; Rockville, Md.), similar to that described by McIntire, Smith and colleagues (34) is used in this study. Our particular set up has been described previously (20). A 35-mm tissue culture dish containing a confluent HAEC monolayer is loaded into the flow chamber. After a brief rinse, U937 cells (5*10^5 cells/ml in assay buffer) are drawn over the HAEC monolayer at a shear stress of 1.8 dynes/cm^2. To determine U937 cell accumulation, the number of U937 cells adherent (either rolling or firmly adherent) to the HAEC monolayer in 8 different fields of view after 2.5 minutes of flow is determined, averaged and normalized to the area of the field of view to give the result for that particular run. Such an assay is done at least 3 times. In certain experiments, TNF-α activated HAEC, in the absence or presence of C-10, are treated with mAbs HEL3/2 or 51-10C9 (10 μg/ml) or a combination of HEL3/2 and 51-10C9. […]

Assay [3] has as its system E-selectin. Briefly: ELISA of TNF-α induced E-selectin protein on HAEC. As to the method:
as §1
HAEC are washed with cold HBSS+, fixed in 1% formaldehyde at 4° C. for 20 min., washed with cold HBSS+, and incubated in cold M199 containing 8% FBS. Unless otherwise noted, from this point on all antibody dilutions and washes are carried out with M199 containing 8% FBS. Murine mAbs (primary mAbs) to ECAMs are added (10 μg/ml) and the HAEC incubated at 4° C. for 20 min. Following the incubation, the wells are washed and a peroxidase conjugated polyclonal (secondary) antibody to mouse IgG is added (diluted 1:50). After a 20 min. incubation at 4° C., the wells are washed and treated with OPD dissolved in phosphate citrate buffer containing sodium perborate. Following a 10 min. incubation at room temperature, the absorbance of the fluid in each well is determined at 450 nm using a micro-well plate spectrophotometer (Molecular Devices; Sunnyvale, Calif.). In every experiment, each condition is run in triplicate wells.
(In general: ELISA stands for enzyme-linked immunosorbent assay.)

In assay [4] the test system is ICAM-1. The assay can be described thus: TNF-α induced ICAM-1 mRNA in HAEC (Northern blot). As to the method: as §1
HAEC are washed with PBS and total RNA extracted using a commercial kit (RNeasy Mini Kit; Qiagen Inc.; Valencia, Calif.). 12 μg of total RNA per lane is resolved on 1% denaturing agarose gels containing 0.66M formaldehyde. […]

In assay [5] the test system is VCAM-1 promoter. Briefly: TNF-alpha-induced VCAM-1 promoter activity, dual luciferase reporter assay in HAEC. As to the method:
as §1
Dual Luciferase Assay: Four human VCAM-1 promoter deletion constructs of different length, −1641/+12, −288/+12, −228/+12, −85/+12 bp are amplified by PCR from human genomic DNA. Each upstream primer contained a restriction endonuclease Mlu I site located at the 5′-end of the primer. The downstream primer corresponding to the +12 end contained a restriction endonuclease Xho I site at the 5′-end. The PCR products are digested by Mlu I and Xho I (New England Biolabs Inc., Beverly, Mass.) and ligated into a similarly digested pGL3 basic luciferase reporter vector (Promega, Madison, Wis.). Cells are transfected for 24 hrs. with 400 ng of indicated constructs, or pGL3 basic luciferase reporter vector as control, using GeneJuice transfection reagent (Novagen Inc., Madison, Wis.). All cells are also transfected with phRL-TK (Int−) vector (Promega), which contains wildtype Renilla luciferase (Rluc) as an “internal” transfection control. Luciferase assays are conducted with the Dual-Luciferase Reporter Assay System (Promega) on a Lumat LB 9507 tube luminometer. In every experiment, each condition is run in triplicate wells. Each experiment is replicated at least twice.

Assay [6] has as its system ICAM-1. Briefly: ELISA of TNF-α induced ICAM-1 protein on HAEC. As to the method: as §1, with “The concentration of DMSO is held constant at 0.25% (unless indicated otherwise) for all of the C-10 conditions.” left out
HAEC are washed with cold HBSS+, fixed in 1% formaldehyde at 4° C. for 20 min., washed with cold HBSS+, and incubated in cold M199 containing 8% FBS. […] Following a 10 min. incubation at room temperature, the absorbance of the fluid in each well is determined at 450 nm using a micro-well plate spectrophotometer (Molecular Devices; Sunnyvale, Calif.). […]

Regarding `Cn1c(-c2ccccc2)cnc1S` [5-Phenylmethimazole], the “% INHIBITION of TNF-alpha-induced VCAM-1 RNA levels” value in assay [1] (5.0 mM) was found to be 99 ± 3%; in assay [1] (10 :M), 75 ± 7%; in assay [1] (100 :M), 99 ± 4%. For the same molecule, in assay [1] (2 hr. TNF-α, HAEC, Northern blot), the “effect on TNF-α induced VCAM-1 mRNA expression” value is “reduced, in a dose-dependent manner”. The “effect on TNF-α induced VCAM-1 mRNA” value in assay [1] (24 hr. TNF-α, HAEC, Northern blot) was “reduced, in a dose dependent manner”. Besides, the “effect on TNF-α induced U937 cell adhesion to HAEC” value is given as “little effect” in assay [2] (4 hr. TNF-α, C-10 0.5 mM, mAbs 10 μg/ml) and “significantly reduced” in assay [2] (24 hr. TNF-α, C-10 0.1 mM alone vs. DMSO). Also, the “effect on TNF-α induced protein expression of E-selectin” value in assay [3] (4 hr. TNF-α) is given as “little to no effect”; in assay [3] (24 hr. TNF-α) it was “significantly reduces”. Further, the “concentration at which significant reduction of TNF-α induced E-selectin protein expression is observed” value in assay [3] (24 hr. TNF-α) was not below 0.05 mM. In addition, the “effect on TNF-α induced ICAM-1 mRNA expression” value in assay [4] (2 hr. TNF-α) is “no effect”; in assay [4] (24 hr. TNF-α) it was “little to no effect”. For the same molecule, in assay [5] (0.3 mM, 10 ng/ml TNF-α 6 hrs., −1641/+12, −288/+12, −228/+12, −85/+12 bp constructs), the “effect on TNF-α induced promoter activities of the four VCAM-1 constructs” value was “inhibits”. In addition, the “% INHIBITION of TNF-alpha-induced VCAM-1 promoter activity” value in assay [5] (10 :M, hVCAM-1(−228 to +12)-luciferase construct, mean ± SD) turned out to be 31 ± 5%; in assay [5] (100 :M, hVCAM-1(−228 to +12)-luciferase construct, mean ± SD), 61 ± 3%. The molecule also returned an inhibition at 5000 µM in assay [5] (Homo sapiens, 5.0 mM, hVCAM-1(−228 to +12)-luciferase construct, mean ± SD) of 72 ± 3%. Further, the “effect on TNF-α induced protein expression of ICAM-1” value in assay [6] (4 hr. TNF-α) was “little to no effect”; in assay [6] (24 hr. TNF-α) it was “no effect”.
